Assay results reported in patent publication US10538555B2, “Macrocyclic inhibitors of the PD-1/PD-L1 and CD80(B7-1)/PD-L1 protein/protein interactions” (BRISTOL-MYERS SQUIBB COMPANY, priority 2014, dated 2020).
Where a SMILES comes first, the peptide text is derived from it. Bridges are numbered along the chain shown (N, C = ends). [ ]: non-standard residue; d: D form. ξ: configuration not given here. Trp(1-CH2COOH) = N[C@@H](Cc1cn(CC(=O)O)c2ccccc12)C(=O)O; Phe(3,4,5-F3) = N[C@@H](Cc1cc(F)c(F)c(F)c1)C(=O)O; Phe(3,4-F2) = N[C@@H](Cc1ccc(F)c(F)c1)C(=O)O; d(cisHyp) = O=C(O)[C@H]1C[C@@H](O)CN1; Hyp = O=C(O)[C@@H]1C[C@@H](O)CN1; NMeF = CN[C@@H](Cc1ccccc1)C(=O)O; NMeNle = CCCC[C@H](NC)C(=O)O; hSer = N[C@@H](CCO)C(=O)O; NMeA = CN[C@@H](C)C(=O)O; Orn = NCCC[C@H](N)C(=O)O; dThz = O=C(O)[C@H]1CSCN1; Dab = NCC[C@H](N)C(=O)O; Dap = NC[C@H](N)C(=O)O; ξP = O=C(O)C1CCCN1; ξC = NC(CS)C(=O)O; Sar = CNCC(=O)O

Target: T1, Human PD-L1/PD-1 (Homo sapiens, UniProt Q9NZQ7)
T1 construct: TVMV protease cleavage site (C); made in house; host or cells: HEK293T cells
Experiment: HTRF Human PD-L1/PD-1 binding assay (PD-1-Ig/PD-L1-His)
Conditions: PD-L1-His 10 nM, PD-1-Ig 20 nM; class symbol; read-out: HTRF Human PD-L1/PD-1 Binding Assay IC50 Range
Procedure, shortened: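 Soluble HEK293T-expressed proteins: hPD-L1-His 10 nM, hPD-1-Ig 20 nM final. Cpd + PD-L1 15 min, + PD-1 15 min, + Eu anti-Ig 1 nM/APC anti-His 20 nM 30 min. Buffer dPBS, 0.1% BSA, 0.05% Tween-20. TR-FRET 665/620.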

T1 sequence (Q9NZQ7 with tags, fused parts or gaps): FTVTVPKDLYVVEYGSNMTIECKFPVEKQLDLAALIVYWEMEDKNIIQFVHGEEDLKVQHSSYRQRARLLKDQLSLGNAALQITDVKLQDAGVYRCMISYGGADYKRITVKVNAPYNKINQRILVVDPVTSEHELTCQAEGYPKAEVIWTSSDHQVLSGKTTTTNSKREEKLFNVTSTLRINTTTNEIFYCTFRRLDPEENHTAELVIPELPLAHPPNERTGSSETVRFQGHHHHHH

| Compound | IC50 |
| --- | --- |
| CCCC[C@H]1C(=O)N2C[C@H](O)C[C@@H]2C(=O)N[C@@H](CC(=O)O)C(=O)N[C@@H](C(C)C)C(=O)N(C)[C@@H](Cc2ccccc2)C(=O)N[C@@H](CCC(=O)O)C(=O)N2C[C@H](O)C[C@@H]2C(=O)N[C@@H](Cc2c[nH]c3ccccc23)C(=O)N[C@@H](Cc2ccc(O)cc2)C(=O)N[C@@H](CCC(=O)O)C(=O)N[C@H](C(=O)NCC(N)=O)CSCC(=O)N[C@@H](Cc2ccc(F)c(F)c2)C(=O)N(C)[C@@H](Cc2ccccc2)C(=O)N1C [Example 9312] ({CH2CO}-[Phe(3,4-F2)][NMeF][NMeNle][d(cisHyp)]DV[NMeF]E[d(cisHyp)]WYECG-NH2; thioether N-13) | 10 to 99.9 nM |
| CCCC[C@H]1C(=O)N(C)[C@@H](CCCC)C(=O)N[C@@H](CCC(=O)O)C(=O)NC(C(=O)NCC(N)=O)CSCC(=O)N[C@@H](Cc2ccc(O)cc2)C(=O)N(C)[C@@H](C)C(=O)N[C@@H](CC(N)=O)C(=O)N2CCC[C@H]2C(=O)N[C@@H](CC(N)=O)C(=O)N[C@@H](CC(C)C)C(=O)N2C[C@H](O)C[C@H]2C(=O)N[C@@H](Cc2c[nH]c3ccccc23)C(=O)N[C@@H](CO)C(=O)N[C@@H](Cc2c[nH]c3ccccc23)C(=O)N1C (some centres unmarked) [Example 9169] ({CH2CO}-Y[NMeA]NPNL[Hyp]WSW[NMeNle][NMeNle]E[ξC]G-NH2; thioether N-14) | 1 to 9.9 nM |
| CCCC[C@H]1C(=O)N(C)[C@@H](CCCC)C(=O)N[C@@H](CCC(=O)O)C(=O)N[C@H](C(=O)NCC(N)=O)CSCC(=O)N[C@@H](Cc2ccc(O)cc2)C(=O)N(C)[C@@H](C)C(=O)N[C@@H](CC(N)=O)C(=O)N2CCC[C@H]2C(=O)N[C@@H](CN)C(=O)N[C@@H](CC(C)C)C(=O)N2C[C@H](O)C[C@H]2C(=O)N[C@@H](Cc2c[nH]c3ccccc23)C(=O)N[C@@H](CO)C(=O)N[C@@H](Cc2cn(CC(=O)O)c3ccccc23)C(=O)N1C [Example 6137] ({CH2CO}-Y[NMeA]NP[Dap]L[Hyp]WS[Trp(1-CH2COOH)][NMeNle][NMeNle]ECG-NH2; thioether N-14) | 10 to 99.9 nM |
| CCCC[C@H]1C(=O)N2CCC[C@@H]2C(=O)N[C@@H](CC(=O)O)C(=O)N[C@@H](C(C)C)C(=O)N(C)[C@@H](Cc2ccccc2)C(=O)N[C@@H](Cc2ccc(O)cc2)C(=O)N2CSC[C@@H]2C(=O)N[C@@H](Cc2c[nH]c3ccccc23)C(=O)N[C@@H](Cc2ccc(O)cc2)C(=O)N[C@@H](CC(C)C)C(=O)N[C@H](C(=O)NCC(N)=O)CSCC(=O)N[C@@H](Cc2cc(F)c(F)c(F)c2)C(=O)N(C)[C@@H](Cc2ccccc2)C(=O)N1C [Example 10092] ({CH2CO}-[Phe(3,4,5-F3)][NMeF][NMeNle][dP]DV[NMeF]Y[dThz]WYLCG-NH2; thioether N-13) | 1 to 9.9 nM |
| CCCC[C@H]1C(=O)N(C)[C@@H](CCCC)C(=O)N[C@@H](CCC(=O)O)C(=O)N[C@H](C(=O)NCC(N)=O)CSCC(=O)N[C@@H](Cc2ccc(O)cc2)C(=O)N(C)[C@@H](C)C(=O)N[C@@H](CC(N)=O)C(=O)N2CCCC2C(=O)N[C@@H](CO)C(=O)N[C@@H](CC(C)C)C(=O)N2C[C@H](O)C[C@H]2C(=O)N[C@@H](Cc2c[nH]c3ccccc23)C(=O)N[C@@H](CO)C(=O)N[C@@H](Cc2cn(CC(=O)O)c3ccccc23)C(=O)N1C (some centres unmarked) [Example 6250] ({CH2CO}-Y[NMeA]N[ξP]SL[Hyp]WS[Trp(1-CH2COOH)][NMeNle][NMeNle]ECG-NH2; thioether N-14) | 1 to 9.9 nM |
| CCCC[C@H]1C(=O)N(C)[C@@H](CCCC)C(=O)N[C@@H](CC(C)C)C(=O)N[C@H](C(=O)NCC(N)=O)CSCC(=O)N[C@@H](Cc2ccc(O)cc2)C(=O)N(C)[C@@H](C)C(=O)N[C@@H](CC(N)=O)C(=O)N2CCC[C@H]2C(=O)N[C@@H](Cc2cnc[nH]2)C(=O)N[C@@H](CCC(N)=O)C(=O)N2C[C@H](O)C[C@H]2C(=O)N[C@@H](Cc2c[nH]c3ccccc23)C(=O)N[C@@H](CCN)C(=O)N[C@@H](Cc2cn(CC(=O)O)c3ccccc23)C(=O)N1C [Example 5241] ({CH2CO}-Y[NMeA]NPHQ[Hyp]W[Dab][Trp(1-CH2COOH)][NMeNle][NMeNle]LCG-NH2; thioether N-14) | 10 to 99.9 nM |
| CCCC[C@H]1C(=O)N[C@@H](CC(N)=O)C(=O)N2CCC[C@H]2C(=O)N[C@@H](CO)C(=O)N[C@@H](CCO)C(=O)N2CCC[C@H]2C(=O)N[C@@H](Cc2c[nH]c3ccccc23)C(=O)N[C@@H](CCO)C(=O)N[C@@H](Cc2c[nH]c3ccccc23)C(=O)N(C)[C@@H](C)C(=O)N(C)[C@@H](C)C(=O)N[C@@H](CCCCN)C(=O)NC(C(=O)NCC(N)=O)CSCC(=O)N[C@@H](Cc2ccc(O)cc2)C(=O)N1C (some centres unmarked) [Example 10214] ({CH2CO}-Y[NMeNle]NPS[hSer]PW[hSer]W[NMeA][NMeA]K[ξC]G-NH2; thioether N-14) | 1000 to 10000 nM |
| CCCC[C@H]1C(=O)N(C)[C@@H](CCCC)C(=O)N[C@@H](CC(C)C)C(=O)N[C@H](C(=O)NCC(N)=O)CSCC(=O)N[C@@H](Cc2ccc(O)cc2)C(=O)N(C)[C@@H](C)C(=O)N[C@@H](CC(=O)O)C(=O)N2CCC[C@H]2C(=O)N[C@@H](CN)C(=O)N[C@@H](CC(C)C)C(=O)N2CCC[C@H]2C(=O)N[C@@H](Cc2c[nH]c3ccccc23)C(=O)N[C@@H](CCN)C(=O)N[C@@H](Cc2cn(CC(=O)O)c3ccccc23)C(=O)N1C [Example 6283] ({CH2CO}-Y[NMeA]DP[Dap]LPW[Dab][Trp(1-CH2COOH)][NMeNle][NMeNle]LCG-NH2; thioether N-14) | 1 to 9.9 nM |
| CCCC[C@H]1C(=O)N(C)[C@@H](CCCC)C(=O)N[C@@H](CCCN)C(=O)N[C@H](C(=O)NCC(N)=O)CSCC(=O)N[C@@H](Cc2ccc(OC)cc2)C(=O)N(C)[C@@H](C)C(=O)N[C@@H](CC(N)=O)C(=O)N2CCC[C@H]2C(=O)N[C@@H](CN)C(=O)N[C@@H](CCCCN)C(=O)N2C[C@H](O)C[C@H]2C(=O)N[C@@H](Cc2c[nH]c3ccccc23)C(=O)N[C@@H](CC(=O)O)C(=O)N[C@@H](Cc2c[nH]c3ccccc23)C(=O)N1C [Example 7108] ({CH2CO}-Y(Me)[NMeA]NP[Dap]K[Hyp]WDW[NMeNle][NMeNle][Orn]CG-NH2; thioether N-14) | 1 to 9.9 nM |
| CCCC[C@H]1C(=O)N(C)[C@@H](CCCC)C(=O)N[C@@H](CC(C)C)C(=O)N[C@H](C(=O)NCC(N)=O)CSCC(=O)N[C@@H](Cc2ccc(OC)cc2)C(=O)N(C)[C@@H](C)C(=O)N[C@@H](CC(N)=O)C(=O)N2CCC[C@H]2C(=O)N[C@@H](CO)C(=O)N[C@@H](CCC(N)=O)C(=O)N2C[C@H](O)C[C@H]2C(=O)N[C@@H](Cc2c[nH]c3ccccc23)C(=O)N[C@@H](CO)C(=O)N[C@@H](Cc2c[nH]c3ccccc23)C(=O)N1C [Example 7136] ({CH2CO}-Y(Me)[NMeA]NPSQ[Hyp]WSW[NMeNle][NMeNle]LCG-NH2; thioether N-14) | 1 to 9.9 nM |
| CCCC[C@H]1C(=O)N2CSC[C@@H]2C(=O)N[C@@H](CC(=O)O)C(=O)N[C@@H](C)C(=O)N(C)[C@@H](Cc2ccccc2)C(=O)N[C@@H](Cc2ccc(O)cc2)C(=O)N(C)CC(=O)N[C@@H](Cc2c[nH]c3ccccc23)C(=O)N[C@@H](Cc2ccc(O)cc2)C(=O)N[C@@H](CC(C)C)C(=O)N[C@H](C(=O)NCC(N)=O)CSCC(=O)N[C@@H](Cc2ccccc2)C(=O)N(C)[C@@H](Cc2ccccc2)C(=O)N1C [Example 10085] ({CH2CO}-F[NMeF][NMeNle][dThz]DA[NMeF]Y[Sar]WYLCG-NH2; thioether N-13) | 100 to 990 nM |
